Laboratory results reported in PubChem BioAssay AID256 (DTP/NCI, 2004).
Values joined by “and” are separate entries in the source; they are usually repeats but may differ in a detail not shown here. Identical values can stand only once. Inconclusive results and toxic doses are left out.

Test system: CD2F1 mice, L1210 leukemia ip, survival T/C
Assay: NCI In Vivo Anticancer Drug Screen. Data for tumor model L1210 Leukemia (intraperitoneal) in CD2F1 (CDF1) mice
Conditions: higher = longer survival
Method: The antitumor activity of compounds was measured in mice bearing transplantable tumors. Survival or tumor size were measured and the results are expressed as the measurement made in the treated group (T) divided by the measurement made in the vehicle treated control group (C). The tumor model used in this assay is L1210 Leukemia (intraperitoneal) in CD2F1 (CDF1) mice

[1] = endpoint: mean survival time, dose: 100.0 mg/kg/injection, schedule: Q04DX003 (ip), vehicle: saline
[2] = endpoint: mean survival time, dose: 200.0 mg/kg/injection, schedule: Q04DX003 (ip), vehicle: saline
[3] = endpoint: mean survival time, dose: 50.0 mg/kg/injection, schedule: Q01DX009 (ip), vehicle: saline with Tween-80
[4] = endpoint: mean survival time, dose: 100.0 mg/kg/injection, schedule: Q01DX009 (ip), vehicle: saline with Tween-80
[5] = endpoint: mean survival time, dose: 200.0 mg/kg/injection, schedule: Q01DX009 (ip), vehicle: saline with Tween-80
[6] = endpoint: mean survival time, dose: 400.0 mg/kg/injection, schedule: Q01DX009 (ip), vehicle: saline with Tween-80
[7] = endpoint: mean survival time, dose: 100.0 mg/kg/injection, schedule: Q01DX001 (ip), vehicle: saline
[8] = endpoint: mean survival time, dose: 200.0 mg/kg/injection, schedule: Q01DX001 (ip), vehicle: saline
[9] = endpoint: mean survival time, dose: 400.0 mg/kg/injection, schedule: Q01DX001 (ip), vehicle: saline
[10] = endpoint: mean survival time, dose: 200.0 mg/kg/injection, schedule: Q04DX003 (ip), vehicle: saline with Tween-80
[11] = endpoint: mean survival time, dose: 400.0 mg/kg/injection, schedule: Q04DX003 (ip), vehicle: saline with Tween-80
[12] = endpoint: mean survival time, dose: 12.5 mg/kg/injection, schedule: Q01DX009 (ip), vehicle: saline

## CS(=O)(=O)c1ccnc2ccccc12
[1]
  T/C: 98 % of control
[2]
  T/C: 92 % of control
endpoint: mean survival time, dose: 400.0 mg/kg/injection, schedule: Q04DX003 (ip), vehicle: saline
  T/C: 95 % of control

## O=C1CCCCC1C1(O)C(=O)Nc2ccccc21 (configuration not stated)
[3]
  T/C: 91 % of control
[4]
  T/C: 95 % of control
[5]
  T/C: 87 % of control

## O=C(C[n+]1cc2ccccc2cc1Cl)c1ccccc1
endpoint: mean survival time, dose: 100.0 mg/kg/injection, schedule: Q04DX003 (ip), vehicle: Klucel (hydroxypropylcellulose) (HPC)
  T/C: 97 % of control
endpoint: mean survival time, dose: 200.0 mg/kg/injection, schedule: Q04DX003 (ip), vehicle: Klucel (hydroxypropylcellulose) (HPC)
  T/C: 88 % of control

## CC(C)(CC(=O)Nc1ccccc1)C(=O)O
[4]
  T/C: 98 % of control and 100 % of control
[5]
  T/C: 96 % of control and 100 % of control
[6]
  T/C: 96 % of control and 102 % of control

## O=C(O)CCC(NC(=O)OCc1ccccc1)C(=O)O (configuration not stated)
[4]
  T/C: 98 % of control
[5]
  T/C: 94 % of control
[6]
  T/C: 96 % of control

## COC1(O)C(=O)c2ccccc2OC1(OC)c1ccc(Cl)cc1 (configuration not stated)
endpoint: mean survival time, dose: 50.0 mg/kg/injection, schedule: Q01DX001 (ip), vehicle: saline
  T/C: 98 % of control
[7]
  T/C: 102 % of control
[8]
  T/C: 98 % of control
[9]
  T/C: 98 % of control

## CC(C)(CN(Cc1ccccc1)Cc1ccccc1)[N+](=O)[O-]
[3]
  T/C: 98 % of control
[4]
  T/C: 98 % of control
[5]
  T/C: 90 % of control

## O=c1[nH]ccn1C1CCCCC1
endpoint: mean survival time, dose: 50.0 mg/kg/injection, schedule: Q01DX001 (ip), vehicle: other
  T/C: 100 % of control
endpoint: mean survival time, dose: 100.0 mg/kg/injection, schedule: Q01DX001 (ip), vehicle: other
  T/C: 96 % of control and 97 % of control
endpoint: mean survival time, dose: 200.0 mg/kg/injection, schedule: Q01DX001 (ip), vehicle: other
  T/C: 97 % of control and 100 % of control

## CCN(CC)CCCNc1cc(OC)cc2nc3cc(Cl)ccc3nc12
endpoint: mean survival time, dose: 12.5 mg/kg/injection, schedule: Q01DX009 (ip), vehicle: suspension in saline
  T/C: 98 % of control
endpoint: mean survival time, dose: 25.0 mg/kg/injection, schedule: Q01DX009 (ip), vehicle: suspension in saline
  T/C: 100 % of control and 101 % of control
endpoint: mean survival time, dose: 50.0 mg/kg/injection, schedule: Q01DX009 (ip), vehicle: suspension in saline
  T/C: 98 % of control and 105 % of control
endpoint: mean survival time, dose: 100.0 mg/kg/injection, schedule: Q01DX009 (ip), vehicle: suspension in saline
  T/C: 101 % of control and 108 % of control
endpoint: mean survival time, dose: 200.0 mg/kg/injection, schedule: Q01DX009 (ip), vehicle: suspension in saline
  T/C: 112 % of control

## COC(=O)c1ccc(C2CCC(OC(c3ccccc3)c3ccccc3)CC2)cc1 (configuration not stated)
[10]
  T/C: 89 % of control
[11]
  T/C: 91 % of control

## CC(NC(=O)CNC(=O)CNC(=O)OCc1ccccc1)C(=O)OCc1ccccc1 (configuration not stated)
endpoint: mean survival time, dose: 100.0 mg/kg/injection, schedule: Q04DX003 (ip), vehicle: saline with Tween-80
  T/C: 97 % of control
[10]
  T/C: 99 % of control
[11]
  T/C: 101 % of control

## CN(C)C1c2ccccc2-c2ccc(F)cc21 (configuration not stated)
endpoint: mean survival time, dose: 50.0 mg/kg/injection, schedule: Q01DX001 (ip), vehicle: carboxymethylcellulose (CMC)
  T/C: 107 % of control
endpoint: mean survival time, dose: 100.0 mg/kg/injection, schedule: Q01DX001 (ip), vehicle: carboxymethylcellulose (CMC)
  T/C: 113 % of control

## OC1CCCN(c2c3ccccc3nc3ccccc23)C1 (configuration not stated)
endpoint: mean survival time, dose: 100.0 mg/kg/injection, schedule: Q04DX002 (ip), vehicle: saline with Tween-80
  T/C: 100 % of control
endpoint: mean survival time, dose: 200.0 mg/kg/injection, schedule: Q04DX002 (ip), vehicle: saline with Tween-80
  T/C: 92 % of control
endpoint: mean survival time, dose: 400.0 mg/kg/injection, schedule: Q04DX002 (ip), vehicle: saline with Tween-80
  T/C: 100 % of control

## CCCCCCCCCCCC(CCCCCCC)c1ccc(C)cc1 (configuration not stated)
[7]
  T/C: 91 % of control
[8]
  T/C: 94 % of control
[9]
  T/C: 97 % of control

## O=[N+]([O-])c1c[nH]n2c([N+](=O)[O-])cnc12
endpoint: mean survival time, dose: 12.5 mg/kg/injection, schedule: Q01DX009 (ip), vehicle: water
  T/C: 96 % of control
endpoint: mean survival time, dose: 25.0 mg/kg/injection, schedule: Q01DX009 (ip), vehicle: water
  T/C: 97 % of control

## CCOC(=O)/C(N=Nc1ccc(O)cc1)=C(\C)O
endpoint: mean survival time, dose: 50.0 mg/kg/injection, schedule: Q01DX009 (ip), vehicle: Klucel (hydroxypropylcellulose) (HPC)
  T/C: 101 % of control
endpoint: mean survival time, dose: 100.0 mg/kg/injection, schedule: Q01DX009 (ip), vehicle: Klucel (hydroxypropylcellulose) (HPC)
  T/C: 93 % of control
endpoint: mean survival time, dose: 100.0 mg/kg/injection, schedule: Q04DX003 (ip), vehicle: acetone
  T/C: 95 % of control
endpoint: mean survival time, dose: 200.0 mg/kg/injection, schedule: Q01DX009 (ip), vehicle: Klucel (hydroxypropylcellulose) (HPC)
  T/C: 96 % of control
endpoint: mean survival time, dose: 200.0 mg/kg/injection, schedule: Q04DX003 (ip), vehicle: acetone
  T/C: 98 % of control

## O=C1c2ccccc2C(=O)N1CNc1cccc(NCN2C(=O)c3ccccc3C2=O)c1
endpoint: mean survival time, dose: 100.0 mg/kg/injection, schedule: Q01DX009 (ip), vehicle: acetone
  T/C: 98 % of control
endpoint: mean survival time, dose: 200.0 mg/kg/injection, schedule: Q01DX009 (ip), vehicle: acetone
  T/C: 103 % of control
endpoint: mean survival time, dose: 400.0 mg/kg/injection, schedule: Q01DX009 (ip), vehicle: acetone
  T/C: 93 % of control

## CN(C)C(=O)c1cccc(COc2ccc(N3C(N)=NC(N)=NC3(C)C)cc2Cl)c1
endpoint: mean survival time, dose: 0.2 mg/kg/injection, schedule: Q01DX009 (ip), vehicle: saline
  T/C: 100 % of control
endpoint: mean survival time, dose: 0.4 mg/kg/injection, schedule: Q01DX009 (ip), vehicle: saline
  T/C: 98 % of control
endpoint: mean survival time, dose: 1.56 mg/kg/injection, schedule: Q01DX009 (ip), vehicle: saline
  T/C: 98 % of control
endpoint: mean survival time, dose: 3.13 mg/kg/injection, schedule: Q01DX009 (ip), vehicle: saline
  T/C: 100 % of control
endpoint: mean survival time, dose: 6.25 mg/kg/injection, schedule: Q01DX009 (ip), vehicle: saline
  T/C: 98 % of control
[12]
  T/C: 98 % of control
endpoint: mean survival time, dose: 65.0 mg/kg/injection, schedule: Q01DX009 (ip), vehicle: saline
  T/C: 97 % of control

## CN=C(N)N/N=C(\C)c1ccc2c(c1)Cc1cc(/C(C)=N/NC(N)=NC)ccc1-2
endpoint: median survival time, dose: 0.37 mg/kg/injection, schedule: Q01DX009 (ip), vehicle: saline with Tween-80
  T/C: 118 % of control and 124 % of control
endpoint: median survival time, dose: 3.0 mg/kg/injection, schedule: Q01DX009 (ip), vehicle: saline with Tween-80
  T/C: 121 % of control
endpoint: median survival time, dose: 6.0 mg/kg/injection, schedule: Q01DX009 (ip), vehicle: saline with Tween-80
  T/C: 92 % of control and 95 % of control

## CCCCCCCCCCCCCCCC(=O)Nc1ccn(C2OC(CO)C(O)C2O)c(=O)n1 (configuration not stated)
[12]
  T/C: 213 % of control and 268 % of control
endpoint: mean survival time, dose: 25.0 mg/kg/injection, schedule: Q01DX009 (ip), vehicle: saline
  T/C: 189 % of control and 270 % of control
endpoint: mean survival time, dose: 50.0 mg/kg/injection, schedule: Q01DX009 (ip), vehicle: saline
  T/C: 225 % of control and 307 % of control
endpoint: mean survival time, dose: 50.0 mg/kg/injection, schedule: Q04DX002 (ip), vehicle: saline
  T/C: 331 % of control
endpoint: mean survival time, dose: 100.0 mg/kg/injection, schedule: Q04DX002 (ip), vehicle: saline
  T/C: 344 % of control and 345 % of control
endpoint: mean survival time, dose: 200.0 mg/kg/injection, schedule: Q01DX009 (ip), vehicle: saline
  T/C: 95 % of control
endpoint: mean survival time, dose: 200.0 mg/kg/injection, schedule: Q04DX002 (ip), vehicle: saline
  T/C: 198 % of control

## CCCCOS(=O)OCCCC
endpoint: mean survival time, dose: 100.0 mg/kg/injection, schedule: Q01DX001 (ip), vehicle: saline with Tween-80
  T/C: 106 % of control
endpoint: mean survival time, dose: 200.0 mg/kg/injection, schedule: Q01DX001 (ip), vehicle: saline with Tween-80
  T/C: 102 % of control
endpoint: mean survival time, dose: 400.0 mg/kg/injection, schedule: Q01DX001 (ip), vehicle: saline with Tween-80
  T/C: 97 % of control

## Nc1nc2c(ncn2-c2ccc(OCCCNC(=O)c3cccc(S(=O)(=O)F)c3)cc2)c(=O)[nH]1
endpoint: mean survival time, dose: 75.0 mg/kg/injection, schedule: Q01DX001 (ip), vehicle: saline with Tween-80
  T/C: 92 % of control
endpoint: mean survival time, dose: 150.0 mg/kg/injection, schedule: Q01DX001 (ip), vehicle: saline with Tween-80
  T/C: 103 % of control
endpoint: mean survival time, dose: 300.0 mg/kg/injection, schedule: Q01DX001 (ip), vehicle: saline with Tween-80
  T/C: 101 % of control

## O=c1cc[nH]c2cc(Cl)ccc12
endpoint: mean survival time, dose: 100.0 mg/kg/injection, schedule: Q04DX003 (ip), vehicle: alcohol
  T/C: 89 % of control
endpoint: mean survival time, dose: 200.0 mg/kg/injection, schedule: Q04DX003 (ip), vehicle: alcohol
  T/C: 96 % of control

## O=C(OC(CC[P+](c1ccccc1)(c1ccccc1)c1ccccc1)(C(=O)c1ccccc1)c1ccccc1)c1ccccc1 (configuration not stated)
endpoint: mean survival time, dose: 0.38 mg/kg/injection, schedule: Q01DX009 (ip), vehicle: saline
  T/C: 104 % of control
endpoint: mean survival time, dose: 0.75 mg/kg/injection, schedule: Q01DX009 (ip), vehicle: saline
  T/C: 105 % of control
endpoint: mean survival time, dose: 1.5 mg/kg/injection, schedule: Q01DX009 (ip), vehicle: saline
  T/C: 93 % of control

## COCCC1(CN2c3ccccc3Sc3ccc(Cl)cc32)CCN(C)C1 (configuration not stated)
[1]
  T/C: 102 % of control
[2]
  T/C: 105 % of control
